Test results published in patent US20230414771A1, “PREPARATION AND USE OF IMMUNOSTIMULATORY CONJUGATED COMPLEXES FOR TARGETED DELIVERY AND ACTIVATION” (YAFEI SHANGHAI BIOLOGY MEDICINE SCIENCE & TECHNOLOGY CO., …, priority 2020, published 2023).
Read-outs that look alike come from different tables or passages of the source. Where a SMILES comes first, the peptide text is derived from it. The star is where a group is joined. Doxorubicin(3'-N) = COc1cccc2c1C(=O)c1c(O)c3c(c(O)c1C2=O)C[C@@](O)(C(=O)CO)C[C@@H]3O[C@H]1C[C@H](N*)[C@H](O)[C@H](C)O1; Hexanoyl(6-maleimido) = O=C1C=CC(=O)N1CCCCCC(=O)*

Assays:
[1] = tested on: Human hepatoma HepG2 cells; assay: Human liver cancer HepG2 tumors in nude mice; type: in vivo; conditions: for inhibition in vivo at 54 µmol/kg: Mus musculus, read-out: Tumor inhibition rate (%) Day 28
Method in brief: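 Female nude mice aged 6-8 weeks bearing HepG2 xenografts, randomized at 100 mm^3 tumor size. Dosing IV from Day 1 at 54 umol/kg; DOX at 18 umol/kg.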

[2] = tested on: HT1080 tumors; assay: HT1080 tumor model in nude mice, 36 umol/kg; type: in vivo; conditions: for inhibition in vivo at 36 µmol/kg: Mus musculus, read-out: Tumor inhibition rate Day 28
Experimental: • 1. Animals: nude mice aged 6-8 weeks, all female. • 2. Preparation of tumor models • 1) HT1080 cells were purchased from ATCC and characterized according to the instructions provided. […] Randomization was performed when the tumor size reached 100 mm^3. Treatment was then initiated, and the day of initiation of treatment was counted as Day 1. • 3) Treatment process
According to the clinical application of the corresponding compound, the drug was administered intravenously (IV). The compounds indicated in the table were administered at a low dose and at the same dose of 36 umol/kg.

[3] = tested on: Human fibrosarcoma HT-1080 tumor tissue homogenate; assay: Activation in HT-1080 tumor tissue homogenate; type: biochemical; conditions: HT-1080 homogenate pH 6.0, 37° C., 1 mg/ml
Experimental: In the experiments of the present disclosure, 1 mg/ml of the sample compound was added to 100 μg of acidified tumor tissue homogenate (pH 6.0) at 37° C. The enzyme in the tumor tissue homogenate can cause the release of doxorubicin, and the reduction of compound and the increase of doxorubicin could be detected by HPLC to compare the activation efficiency of the drug in the tumor tissue.

[4] = tested on: BALB/C mice; assay: Acute toxicity (MTD) of intravenous administration in mice; type: in vivo; conditions: 38.4 μmol/kg intravenous, 10 mice, observed 17 days
Experimental: They were randomly divided into 7 groups according to body weight, 10 mice in each group. […] The control test of saline group and paclitaxel group injection (commercially available, Beijing Youcare pharmaceutical) was carried out, the volume of administration was 0.2 ml for each mouse.

[5] = tested on: CT26 tumor; assay: CT26 tumor immune model, tumor suppression and CD8+ T cell analysis; type: in vivo, BALB/c mice
Experimental: • 1) CT26 cells were purchased from ATCC. […] The corresponding 5×10^6 cells were injected subcutaneously into the back of […] mice. After the size of tumors reached at least 100 mm^3, the mice were randomized into groups. Treatment was then initiated, with the day of treatment initiation being Day 1. • 3) The course of treatment. The drug was administered at an equimolar dose of 36 umol/kg. The control group was given normal saline. The drug was administered once a week for three week. • 4) Tumor CD8+ T cell analysis. Tumor tissue was homogenized, individual cells in the tumor were filtered, dissociated and washed twice with buffer, and then incubated with leukocyte common antigen CD45-PE and CD8-FITC-labeled antibodies for 1 hour at room temperature. The cells were washed twice with phosphate buffered saline containing 1% fetal bovine serum, and then the proportion of T lymphocyte antigen (CD8)-positive cells in leukocyte common antigen (CD45)-positive cells was analyzed by flow cytometry. An increase in the ratio indicates an increase in T lymphocytes and therefore an improvement in the immunity of the animal to the tumor. • 5) The grouping and test results are shown in Table 7.

[6] = tested on: M2 macrophages; assay: MTT cytotoxicity on M2 macrophages; type: cell-based, C57BL/6 mice; conditions: 48 hours, relative to C3
Experimental: The bilateral femur and tibiae of two C57BL/6 mice were taken out under aseptic conditions, and that metaphysis was cut off in a super-clean table. the marrow cavity was gently washed with serum-free MEM culture solution by a 5 mL sterile syringe for 4 times, and all cell suspensions were collect; Centrifuge at 1000 r/min for 10 min, discard the supernatant to obtain the cell precipitate, resuspend with an appropriate volume of serum-free MEM culture medium, repeatedly blow and homogenize, filter with a 40 uM filter screen, add 3 times the volume of erythrocyte lysate, and lyse on ice for 10 min; Centrifuge at 1000 r/min for 5 min, discard the supernatant to obtain the cell precipitate, wash with serum-free MEM culture medium for 2 times, and collect the cell precipitate; Resuspend the cells with MEM complete culture medium containing 10% FBS and 1% PS in volume fraction, and count the cells for subsequent differentiation; 100 uL, 20000 cells/well were inoculated into 96-well cell culture plate, 100 ng M-CSF was added into the culture medium for differentiation of M2 macrophages, and the cells were statically cultured at 37° C. in 5% C02 incubator, and induced to differentiate for 7 days, and the cell morphology was observed. […]
The cell survival rate and the 50% inhibitory concentration of the drug on the cells were calculated. […]

[7] = drug 36 umol/kg once a week for three weeks, PD-1 antibody 5 mg/kg

Row | SMILES | Tumor volume (mm^3) Day 28 ([1]; 54 umol/kg IV once a week for 4 weeks) [mm^3] | inhibition in vivo at 54 µmol/kg ([1]; HepG2, 672 h, 54 umol/kg IV once a week for 4 weeks) [%] | therapeutic effect on liver cancer, in words ([1]; same molar dose) | Tumor volume (mm^3) Day 28 ([2]; 36 umol/kg IV once a week for 3 weeks) [mm^3] | inhibition in vivo at 36 µmol/kg ([2]; HT-1080, 672 h, 36 umol/kg IV once a week for 3 weeks) [%] | Compound activation ratios (%) [3] [%] | Number of dead mice [4] | CD8:CD45 (%) ([5]; CD8-positive among CD45-positive cells in tumor, flow cytometry) | therapeutic effect combined with PD-1, in words ([5]; combined with PD-1 versus single drug) | Tumor inhibition rate (%) Day 28 [5, 7] [%] | Tumor volume (mm^3) Day 28 [5, 7] [mm^3] | inhibition in vivo at 54 µmol/kg ([1]; HepG2, iv, 672 h) [%] | cytotoxicity against M2 macrophages (FIG. 6) [6] | inhibition in vivo at 36 µmol/kg ([2]; HT-1080, iv, 672 h) [%]
1 | COc1cccc2c1C(=O)c1c(O)c3c(c(O)c1C2=O)C[C@@](O)(C(=O)CO)C[C@@H]3O[C@H]1C[C@H](NC(=O)[C@H](CC(C)C)NC(=O)[C@H](CC(N)=O)NC(=O)[C@H](C)NC(=O)[C@H](C)NC(=O)CCCCCN2C(=O)C=CC2=O)[C@H](O)[C@H](C)O1 [EMC-AANL-DOX] ({Hexanoyl(6-maleimido)}-AANL-{Doxorubicin(3'-N)}) | 218.3 ± 167.7 | 92.5 | good effect on the treatment of liver cancer | 138.3 ± 124.6 | 92.1 | 44.7 | 8 | 8.9 | improved compared with single drug | 66.9 | 624.5 ± 313.6 |  |  | 
2 | COc1cccc2c1C(=O)c1c(O)c3c(c(O)c1C2=O)C[C@@](O)(C(=O)CO)C[C@@H]3O[C@H]1C[C@H](NC(=O)[C@H](CC(C)C)NC(=O)[C@H](CC(N)=O)NC(=O)[C@H](C)NC(=O)[C@H](C)NC(=O)CCOCCOCCNC(=O)CCN2C(=O)C=CC2=O)[C@H](O)[C@H](C)O1 [QHL-087-DOX] |  |  |  |  |  |  | 4 |  |  |  |  | 100 | significantly improved cytotoxicity against M2 macrophages | 100
